This is an account of results in ChEMBL document CHEMBL6096692, “Discovery of 2(1H)-Quinoxalinone Derivatives as Potent and Selective MAT2A Inhibitors for the Treatment of MTAP-Deficient Cancers” (J Med Chem, 2025).

SMILES strings stand for the structures. Where “and” joins values, the source holds several entries; their conditions need not be identical. Identical values can stand only once. Calls of active or inactive are those of the source. The rule behind the calls is not given here.

In general, IC50 refers to the concentration that gives 50% inhibition.

The target of assay [1] is S-adenosylmethionine synthase isoform type-2 (Homo sapiens, UniProt P31153). In words: Inhibition of MAT2A (unknown origin) using L-methionine and ATP as substrate preincubated with compound for 10 mins followed by substrate addition and measured after 60 mins by kinase-glo max reagent based microplate reader analysis. (Kinase-Glo measures the ATP left after a reaction by luminescence.)
S-adenosylmethionine synthase isoform type-2, sequence (P31153 whole entry, canonical isoform): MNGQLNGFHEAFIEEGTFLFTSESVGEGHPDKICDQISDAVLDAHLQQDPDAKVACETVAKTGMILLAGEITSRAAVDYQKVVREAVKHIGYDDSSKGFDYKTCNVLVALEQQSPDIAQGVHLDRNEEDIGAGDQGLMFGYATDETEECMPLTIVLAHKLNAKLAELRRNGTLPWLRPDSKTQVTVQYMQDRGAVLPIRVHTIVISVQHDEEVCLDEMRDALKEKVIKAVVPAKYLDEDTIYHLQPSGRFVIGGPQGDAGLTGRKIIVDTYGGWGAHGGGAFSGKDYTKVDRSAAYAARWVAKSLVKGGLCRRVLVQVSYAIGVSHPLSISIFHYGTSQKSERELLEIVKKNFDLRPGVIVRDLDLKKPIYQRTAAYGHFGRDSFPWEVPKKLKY

The test system of assay [2] is B16-F10. The experiment in a line: Antiproliferative activity against MTAP knockout mouse B16-F10 cells assessed as inhibition of cell viability measured for 96 hrs by SRB assay. The settings on record: B16-F10, 96 h. The class given is functional, cell-based. Background: In SRB staining, fixed cells bind dye roughly in proportion to their protein.
A short description of assay [3]: Selectivity index, ratio of IC50 for antiproliferative activity against mouse B16-F10 cells harboring wild type MTAP assessed as inhibition of cell viability to IC50 for antiproliferative activity against MTAP knockout mouse B16-F10 cells assessed as inhibition of cell viability. It is filed as functional.
The test system of assay [4] is B16-F10. The experiment in a line: Antiproliferative activity against mouse B16-F10 cells harboring wild type MTAP assessed as inhibition of cell viability measured for 96 hrs by SRB assay. The class given is functional, cell-based. The settings on record: B16-F10, 96 h.
The test system of the next assay is MIA PaCa-2. The experiment in a line: Antitumor activity against MTAP null human MIA PaCa-2 cells xenografted in mouse assessed as tumor growth inhibition at 30 to 60 mg/kg, po measured after 28 days. It is filed as functional, organism-based. The following applies: dose 30-60 mg/kg, time 28.0 day.
In a further assay the test system is SF-126. In words: Induction of DNA damage in human SF-126 cells harboring wild type MTAP assessed as increase in gammaH2AX level at 0.1 to 10 uM measured for 96 hrs by Western blot analysis. The class given is functional, cell-based. The settings on record: dose 0.1-10 µM. On the technique in general: A western blot detects proteins with antibodies after separation by electrophoresis.

On to `COc1ccc(-c2nc3cnc(NCC(F)(F)F)nc3n(-c3ccc(OC(F)F)nc3)c2=O)cc1`, for which the IC50 in assay [1] is > 1 µM.
As to `COc1ccc(-c2nc3cnc(NCC(F)(F)F)nc3n(-c3ccc(Br)cc3)c2=O)cc1`, the IC50 in assay [1] is 0.151 µM; with B16-F10 [2], 6.54 µM; with B16-F10 [4] it was > 20 µM. For the same molecule, the “Ratio IC50” value in assay [3] is listed as >3.1.
Taken in the same sequence, the figures for `CC1=Nc2ccc(-c3nc4ccc(C5CC5)cc4n(-c4ccc(OC(F)F)cc4)c3=O)cc2C1(C)C` were 0.0892 µM, 0.76 µM, 5.26 µM and 6.9.
For the molecule `O=c1c(-c2ccc3c(c2)CCO3)nc2cnc(NCC(F)(F)F)nc2n1-c1ccc(OC(F)F)cc1`, the IC50 in assay [1] is 0.089 µM; with B16-F10 [2], 2.48 µM; in the assay on B16-F10 [4], > 20 µM. Moreover, the “Ratio IC50” value in assay [3] is on record as >8.1.
For the molecule `COc1ccc(-c2nc3cnc(NCC(F)(F)F)nc3n(-c3ccc(C(F)(F)F)cc3)c2=O)cc1`, the IC50 in assay [1] is > 1 µM.
On to `Cn1cnc2ccc(-c3nc4cnc(NCC5CC5)nc4n(-c4ccc(OC(F)F)cc4)c3=O)cc21`, for which the IC50 in assay [1] amounted to 0.613 µM; in the assay with B16-F10 [2] it was 2.96 µM; in the assay with B16-F10 [4], 7.24 µM. Besides, in assay [3], the “Ratio IC50” value was found to be 2.4.
Take `O=c1c(-c2ccc3ncnn3c2)nc2ccc(C3CC3)cc2n1-c1ccc(OC(F)F)cc1`: the IC50 in assay [1] is 0.115 µM; in the assay on B16-F10 [2], 14.3 µM; in the assay with B16-F10 [4], > 20 µM. Also, the “Ratio IC50” value in assay [3] was >1.4.
In the case of `Cn1nnc2ccc(-c3nc4ccc(C5CC5)cc4n(-c4ccc(OC(F)F)cc4)c3=O)cc21`, the figures for the IC50 (in assay [1]; in the assay on B16-F10 [2]; in the assay on B16-F10 [4]) were 0.0289 µM, 1.52 µM and 9.07 µM, respectively. For the same molecule, the “Ratio IC50” value in assay [3] turned out to be 3.8.
As to `O=c1c(-c2ccc3nccn3c2)nc2ccc(C3CC3)cc2n1-c1ccc(OC(F)F)cc1`, the IC50 in assay [1] was 0.0639 µM; in the assay on B16-F10 [2], 0.78 µM; with B16-F10 [4], > 20 µM. The “Ratio IC50” value in assay [3] was >25.6.
For `CC(C)n1cnc2ccc(-c3nc4ccc(C5CC5)cc4n(-c4ccc(OC(F)F)cc4)c3=O)cc21`, the figures for the 50% inhibitory concentration (IC50) (in assay [1]; with B16-F10 [2]; in the assay on B16-F10 [4]) were 0.138 µM, 0.37 µM and 3.33 µM, respectively. In assay [3], the “Ratio IC50” value is reported as 9.
In the case of `O=c1c(-c2ccc3ncccc3c2)nc2cnc(NCC(F)(F)F)nc2n1-c1ccc(OC(F)F)cc1`, the IC50 in assay [1] was 0.435 µM.
Consider `Cn1cc2cc(-c3nc4ccc(C5CC5)cc4n(-c4ccc(OC(F)F)cc4)c3=O)ccc2n1`, for which the concentration for half-maximal inhibition (IC50) in assay [1] was 0.0792 µM; with B16-F10 [2], 4.36 µM; in the assay with B16-F10 [4], > 20 µM. In addition, the “Ratio IC50” value in assay [3] is listed as >4.6.
In the case of `O=c1c(-c2ccc3ncn(C4CC4)c3c2)nc2cnc(NCC(F)(F)F)nc2n1-c1ccc(OC(F)F)cc1`, the IC50 in assay [1] came to 0.083 µM; in the assay on B16-F10 [2], 0.4 µM; in the assay on B16-F10 [4] it was 16.6 µM. The “Ratio IC50” value in assay [3] came to 41.4.
The like results for `O=c1c(-c2ccc3c(c2)CCCO3)nc2cnc(NCC(F)(F)F)nc2n1-c1ccc(OC(F)F)cc1` were, in that order, 0.0377 µM, 1.67 µM, > 20 µM and >12.
Take `COc1ccc(-c2nc3cnc(NCC(F)(F)F)nc3n(-c3cccc(OC(F)F)c3)c2=O)cc1`: the IC50 in assay [1] is > 1 µM.
For the molecule `CCOc1ccc2nc(-c3ccc4ncn(C)c4c3)c(=O)n(-c3ccc(OC(F)F)cc3)c2c1`, the IC50 in assay [1] was 0.104 µM; in the assay on B16-F10 [2], 3.08 µM; in the assay with B16-F10 [4], > 20 µM. The “Ratio IC50” value in assay [3] was >6.5.
Taken in the same sequence, the figures for `COc1ccc2nc(-c3ccc4ncn(C)c4c3)c(=O)n(-c3ccc(OC(F)F)cc3)c2c1` were 0.089 µM, 2.48 µM, > 20 µM and >8.1.
Taken in the same sequence, the figures for `Cn1cc2cc(-c3nc4cnc(NCC(F)(F)F)nc4n(-c4ccc(OC(F)F)cc4)c3=O)ccc2n1` were 0.0388 µM, 1.25 µM, > 20 µM and >16.
Taken in the same sequence, the figures for `O=c1c(-c2ccc3nncn3c2)nc2ccc(C3CC3)cc2n1-c1ccc(OC(F)F)cc1` were 0.103 µM, 1.13 µM, 14.9 µM and 13.2.
Consider `O=c1c(-c2ccc3ncoc3c2)nc2ccc(C3CC3)cc2n1-c1ccc(OC(F)F)cc1`, for which the half-maximal inhibitory concentration (IC50) in assay [1] worked out at 0.0985 µM.
For the molecule `O=c1c(-c2ccc3ncn(C4CCCC4)c3c2)nc2cnc(NCC(F)(F)F)nc2n1-c1ccc(OC(F)F)cc1`, the IC50 was 0.108 µM and 0.0231 µM in assay [1]; 0.3 µM in the assay on B16-F10 [2]; 9.74 µM in the assay with B16-F10 [4]. The “Ratio IC50” value in assay [3] was determined as 32.5.
Take `Cn1cnc2ccc(-c3nc4cnc(NC5CC5)nc4n(-c4ccc(OC(F)F)cc4)c3=O)cc21`: the IC50 in assay [1] was 0.049 µM.
As to `Cn1cnc2ccc(-c3nc4ccc(C5CC5)nc4n(-c4ccc(OC(F)F)cc4)c3=O)cc21`, the results for the IC50 (in assay [1]; in the assay with B16-F10 [2]; in the assay with B16-F10 [4]) were 0.0231 µM, 0.21 µM and 0.8 µM, respectively. In addition, in assay [3], the “Ratio IC50” value is 3.8.
The like results for `O=c1c(-c2ccn3nccc3c2)nc2ccc(C3CC3)cc2n1-c1ccc(OC(F)F)cc1` were, in that order, 0.0814 µM, 1.34 µM, 13.9 µM and 10.4.
For the molecule `COc1ccc(-c2nc3cnc(NCC(F)(F)F)nc3n(-c3ccc(OCC(F)F)cc3)c2=O)cc1`, in assay [1], the IC50 is > 1 µM.
As for `Cn1cnc2ccc(-c3nc4ccc(C5CCC5)cc4n(-c4ccc(OC(F)F)cc4)c3=O)cc21`, the IC50 in assay [1] worked out at 0.228 µM.
Consider `COc1ccc(-c2nc3cnc(NCC(F)(F)F)nc3n(-c3ccc(Cl)cc3)c2=O)cc1`, for which the IC50 in assay [1] is 0.138 µM; in the assay with B16-F10 [2], 9.27 µM; with B16-F10 [4], > 20 µM. Also, the “Ratio IC50” value in assay [3] is >2.2.
As to `Cc1nc2ccc(-c3nc4cnc(NCC(F)(F)F)nc4n(-c4ccc(OC(F)F)cc4)c3=O)cc2n1C`, the IC50 in assay [1] amounted to 0.0644 µM; in the assay with B16-F10 [2], 0.53 µM; with B16-F10 [4] it was 18.1 µM. The “Ratio IC50” value in assay [3] amounted to 34.2.
Take `COc1ccc(-n2cc3cnc(NCC(F)(F)F)nc3c(-c3ccc(Br)cc3)c2=O)cc1`: the figures for the IC50 (in assay [1]; in the assay on B16-F10 [2]; with B16-F10 [4]) were 0.0561 µM, 0.33 µM and 2.15 µM, respectively. In addition, the “Ratio IC50” value in assay [3] is 6.5. Moreover, in the assay with MIA PaCa-2, the result was Active. Moreover, the result with SF-126 was inactive.
Consider `Cn1cnc2ccc(-c3nc4cnc(C5CC5)cc4n(-c4ccc(OC(F)F)cc4)c3=O)cc21`, for which, in assay [1], the IC50 stood at 0.613 µM.
Take `Cn1cnc2ccc(-c3nc4cnc(NCC(F)(F)F)nc4n(-c4ccc(OC(F)F)cc4)c3=O)cc21`: the concentration for half-maximal inhibition (IC50) in assay [1] was 0.0634 µM; with B16-F10 [2] it was 0.31 µM; in the assay with B16-F10 [4] it was > 20 µM. The “Ratio IC50” value in assay [3] is listed as >64.5.
The like results for `COc1ccc(-c2nc3cnc(NCC(F)(F)F)nc3n(-c3ccc(OC(F)F)cc3)c2=O)cc1` were, in that order, 0.1 µM, 3.3 µM, > 20 µM and >6.1.
